# Values quoted from earlier work in patent publication US20260256768A1, “DRY POWDER COMPOSITIONS OF BEDAQUILINE AND SALTS AND METHODS OF USE THEREOF” (Insmed Incorporated, priority 2022, published 2026).
# How the values were obtained:
# cancer metastasis = conditions: in vivo
# [1] = tested on: non-small cell lung cancer cell lines; conditions: two non-small cell lung cancer cell lines
# [2] = tested on: MCF7 breast cancer cells-derived cancer stem-like cells
# lung tumor = conditions: animal model
compound,measurement,setting,value
"COc1nc2ccc(Br)cc2cc1[C@@H](c1ccccc1)[C@@](O)(CCN(C)C)c1cccc2ccccc12 [bedaquiline, (1R,2S)-1-(6-bromo-2-methoxyquinolin-3-yl)-4-(dimethylamino)-2-naphthalen-1-yl-1-phenylbutan-2-ol]",effect on cancer metastasis,cancer metastasis,inhibit cancer metastasis
same,cytotoxicity,[1],cytotoxic properties
same,effect on propagation and expansion of cancer stem-like cells,[2],block the propagation and expansion
same,effect on lung tumor growth and angiogenesis,lung tumor,inhibit lung tumor growth and angiogenesis
